How the values were obtained:
Type in all cases: biochemical
MMP 12 = MMP 12 (Homo sapiens, UniProt P39900); experiment: Activity of the metalloproteases (MMP) enzyme
Method: (§1) The anti-aging effect of the composition of the first aspect was determined by the methods that measure the activity of the elastase enzyme and the activity of the metalloproteases (MMP) enzyme.

MMP 3 = MMP 3 (Homo sapiens, UniProt P08254); experiment: Activity of the metalloproteases (MMP) enzyme
Method: as §1

MMP 1 = molecular target: T1, MMP 1 (Homo sapiens, UniProt P03956); experiment: Activity of the metalloproteases (MMP) enzyme
T1 sequence (P03956 100-469): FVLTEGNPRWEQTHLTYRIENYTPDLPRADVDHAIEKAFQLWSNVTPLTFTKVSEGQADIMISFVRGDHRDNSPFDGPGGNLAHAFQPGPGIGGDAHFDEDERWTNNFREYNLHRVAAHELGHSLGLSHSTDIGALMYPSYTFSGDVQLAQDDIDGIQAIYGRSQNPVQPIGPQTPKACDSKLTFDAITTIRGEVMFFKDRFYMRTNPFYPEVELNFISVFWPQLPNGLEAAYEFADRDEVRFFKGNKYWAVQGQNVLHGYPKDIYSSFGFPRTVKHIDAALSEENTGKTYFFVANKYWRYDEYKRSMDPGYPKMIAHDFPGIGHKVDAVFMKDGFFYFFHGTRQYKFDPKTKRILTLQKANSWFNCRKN
Method: as §1

elastase = experiment: Activity of the elastase enzyme
Method: as §1

Sequence of MMP 12 (P39900 106-470): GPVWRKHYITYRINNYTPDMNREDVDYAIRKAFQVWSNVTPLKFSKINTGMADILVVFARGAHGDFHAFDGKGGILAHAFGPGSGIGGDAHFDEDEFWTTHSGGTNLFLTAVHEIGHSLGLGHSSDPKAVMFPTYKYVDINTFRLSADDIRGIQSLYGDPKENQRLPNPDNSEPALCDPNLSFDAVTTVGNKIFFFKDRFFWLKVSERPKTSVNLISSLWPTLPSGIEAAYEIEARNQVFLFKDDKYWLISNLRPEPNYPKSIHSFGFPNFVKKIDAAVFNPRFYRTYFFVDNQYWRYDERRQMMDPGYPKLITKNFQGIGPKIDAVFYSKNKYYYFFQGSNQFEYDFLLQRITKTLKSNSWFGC
Sequence of MMP 3 (P08254 100-477): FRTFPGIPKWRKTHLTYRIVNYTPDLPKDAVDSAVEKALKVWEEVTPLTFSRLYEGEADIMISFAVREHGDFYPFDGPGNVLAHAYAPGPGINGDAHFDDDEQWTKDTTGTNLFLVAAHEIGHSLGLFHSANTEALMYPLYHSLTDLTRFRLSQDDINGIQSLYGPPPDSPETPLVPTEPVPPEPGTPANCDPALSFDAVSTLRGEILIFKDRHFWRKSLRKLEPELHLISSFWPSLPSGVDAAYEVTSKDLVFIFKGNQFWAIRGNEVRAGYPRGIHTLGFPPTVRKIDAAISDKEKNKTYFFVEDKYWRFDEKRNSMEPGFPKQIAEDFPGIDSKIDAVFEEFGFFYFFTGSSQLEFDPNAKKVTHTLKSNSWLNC

Inhibition of the activity of MMP 12 (MMP 12) | Inhibition of the activity of MMP 3 (MMP 3) | Inhibition of the activity of MMP 1 (MMP 1) | Inhibition of the activity of elastase (elastase) | Compound
do not present this result | do not present this result | do not present this result | do not present such result | Vitamin E
do not present this result | do not present this result | do not present this result | do not present such result | O=C1O[C@H]([C@@H](O)CO)C(O)=C1O [Vitamin C]
